Source: US20120172598A1, “COMPOUNDS HAVING TAFIa INHIBITORY ACTIVITY” (TAISHO PHARMACEUTICAL CO., LTD., priority 2009, published 2012)
Counter-ions that a name gives are not always drawn.

Biological target: T1, TAFIa (Homo sapiens, UniProt Q96IY4)
T1 construct: purchased Enzyme Research Laboratories
T1 sequence (Q96IY4 115-423): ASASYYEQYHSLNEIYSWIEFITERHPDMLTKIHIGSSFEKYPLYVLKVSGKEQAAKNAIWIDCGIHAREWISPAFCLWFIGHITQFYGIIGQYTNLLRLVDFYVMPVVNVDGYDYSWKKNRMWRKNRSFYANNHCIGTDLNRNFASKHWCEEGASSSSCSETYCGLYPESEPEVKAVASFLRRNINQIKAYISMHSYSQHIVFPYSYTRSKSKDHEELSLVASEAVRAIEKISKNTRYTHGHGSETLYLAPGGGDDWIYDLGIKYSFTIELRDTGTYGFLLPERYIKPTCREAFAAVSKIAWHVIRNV
Test: TAFIa inhibition test (Hip-Arg substrate, absorbance at 405 nm)
Format: biochemical
Conditions: TAFI activated with thrombin/thrombomodulin, 40 minutes at room temperature, read-out: TAFIa inhibitory activity IC50
Protocol: Test 1 [TAFIa Inhibition Test]
Compounds of the present invention were measured for their TAFIa inhibitory activity as follows based on the method described in Thromb. Haemost. 79, 371-377 (1998).
(a) Preparation of TAFIa Solution
To 450 μl of TAFI (the product of Enzyme Research Laboratories whose concentration was adjusted to 18 μg/ml with buffer A: 100 mM Tris-HCl, pH 7.4), 45 μl of a thrombomodulin solution (a rabbit lung derived thrombomodulin produced by American Diagnostica whose concentration was adjusted to 1 μg/ml with buffer B: 50 mM Tris-HCl, pH 7.5, containing 0.15 M NaCl) and 45 μl of a thrombin solution (a freeze-dried human plasma derived thrombin produced by Sigma and dissolved in water to have a concentration of 30 μU/ml) were added and the mixture was left to stand at room temperature for 25 minutes.
(b) Method of Measuring TAFIa Inhibitory Activity […]
Subsequently, a color former (1% cyanuric chloride in 1,4-dioxane) was added in an amount of 50 μl to each well and the plate was left to stand for 3 minutes at room temperature, then absorbance at 405 nm was measured with a microplate reader (Spectramax M2 of Molecular Devices). […]
For two compounds of the present invention, the above test was conducted and on the basis of the results of measurements, TAFIa inhibitory activity was calculated to give the results shown in Table 2.

Compound | IC50 [nM]
N[C@H]1CCN([C@@H](Cc2ncn3c2CCc2ccccc2-3)C(=O)O)C1 [Compound 1, (2S)-2-[(3S)-3-aminopyrrolidin-1-yl]-3-(4,5-dihydroimidazo[1,5-a]quinolin-3-yl)propanoic acid trihydrochloride] | 36
Cc1ccc2c(c1)CCc1c(C[C@@H](C(=O)O)N3CC[C@H](N)C3)ncn1-2 [Compound 2, (2S)-2-[(3S)-3-aminopyrrolidin-1-yl]-3-(7-methyl-4,5-dihydroimidazo[1,5-a]quinolin-3-yl)propanoic acid trihydrochloride] | 23
